# Results as given in the supplement of paper PMC11208160.
# Assay: recombinant UMI read abundance after kanamycin selection (control-corrected) (log10(CPM+1)); higher = more efficient recombination; extreme values may be limits of the assay; sequences stand for … in AGTGCAGAGAAAATCGGCCAGTTTTCTCTGCCTGCAGTCCGCATGCCGTGGGACCCCTTGGGTTCTAACCTGTTGCCTAGATTTATGCAGCGGACTGCCTTTCTCCCAAAGTGATAAACCGG…AGGTTGGTTTCACT; site = the 11-nt donor
# Summary of the method: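 Counts of recombinant UMIs were reported as log10(CPM+1). Before that, they were converted to CPM, averaged over replicates and scaled using control-derived factors. They came from PCR across the donor–target junction after Escherichia coli carrying the pair library and target plasmid was plated on IPTG (0.07 mM) plus kanamycin, or unselected, in two replicates each.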
# 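Note: IS621 bridge recombinase in Escherichia coli cells against a fixed T5 target plasmid.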
row,Sequence,recombinant UMI read abundance (log10)
1,CCGTTAGCATGGACCGGTTTTCCCGGTAATCCGTATTTGTT (site CCGTTAGCTAA),1.02
2,CTCTTCTCATGGACCGGTTTTCCCGGTAATCCGTATTTGGG (site CGCTTCTCTCC),0.014
3,GAATGGCCATGGACCGGTTTTCCCGGTAATCCGTATTTGTA (site GAATGGCCTTA),0.142
4,GACCTATCATGGACCGGTTTTCCCGGTAATCCGTATTTGGA (site GACCTATCTTC),0.981
5,AAGTACGCATGGACCGGTTTTCCCGGTAATCCGTATTTGGG (site AAGTACGCTCC),0.423
6,TAGCTAGCATGGACCGGTTTTCCCGGTAATCCGTATTTGGA (site TAGCTAGCTTG),0.447
7,AGCTCAACATGGACCGGTTTTCCCGGTAATCCGTATTTGGG (site AGCTCAACTCC),0
8,ACCCGGGCATGGACCGGTTTTCCCGGTAATCCGTATTTGAC (site ACCCGGGCTGT),2.02
9,TTCGGTTCATGGACCGGTTTTCCCGGTAATCCGTATTTGAC (site TTCGGTTCTGT),0
10,CGGTAGACATGGACCGGTTTTCCCGGTAATCCGTATTTGCA (site AGGAAGACTTG),0
11,GCTAAGCCATGGACCGGTTTTCCCGGTAATCCGTATTTGGG (site GCCAAGCCTCC),0.0229
12,TCGCCAGCATGGACCGGTTTTCCCGGTAATCCGTATTTGTG (site TCGCCAGCTCA),0.0192
13,CACCGATCATGGACCGGTTTTCCCGGTAATCCGTATTTGCC (site CACCGATCTGG),2.44
14,GGTTAGACATGGACCGGTTTTCCCGGTAATCCGTATTTGAG (site CGTTAGACTCT),0.202
15,GGCCACCCATGGACCGGTTTTCCCGGTAATCCGTATTTGGT (site GGCCACCCTAG),0
16,CTAGTATCATGGACCGGTTTTCCCGGTAATCCGTATTTGAC (site TAAGTATCTGT),0
17,CAAGGCTCATGGACCGGTTTTCCCGGTAATCCGTATTTGAA (site CAATGCTCTTT),0.368
18,GTATGCACATGGACCGGTTTTCCCGGTAATCCGTATTTGTC (site GTATGCACTAA),0.663
19,TTAGAGACATGGACCGGTTTTCCCGGTAATCCGTATTTGCG (site TCAGAGACTCG),1.03

row,Sequence,recombinant UMI read abundance (log10)
1,CGGGAAACATGGACCGGTTTTCCCGGTAATCCGTATTTGAT (site CGGGAAGCTAT),2.21
2,ACCGTATCATGGACCGGTTTTCCCGGTAATCCGTATTTGCT (site ACCGTATCTAG),2.39
3,GTAAGCACATGGACCGGTTTTCCCGGTAATCCGTATTTGTA (site GTAGGCACTTA),0.614
4,CCGCACACATGGACCGGTTTTCCCGGTAATCCGTATTTGAA (site CCGCACACTTT),0.931
5,AGGTTGCCATGGACCGGTTTTCCCGGTAATCCGTATTTGTG (site AGGTTACCTCA),0.00238
6,CTGTTTACATGGACCGGTTTTCCCGGTAATCCGTATTTGCT (site CCGTTTACTAG),1.15
7,CGGGGAACATGGACCGGTTTTCCCGGTAATCCGTATTTGTT (site CGAGGAACTAA),2.44
8,CGGGAACCATGGACCGGTTTTCCCGGTAATCCGTATTTGAT (site CGGGACCCTAT),0.0207
9,GGGGAACCATGGACCGGTTTTCCCGGTAATCCGTATTTGAT (site TGGGAACCTAT),0
10,CGTGGAACATGGACCGGTTTTCCCGGTAATCCGTATTTGTT (site CGGGGAACTAA),0.00685
11,CTGGAAACATGGACCGGTTTTCCCGGTAATCCGTATTTGCA (site CTGGGAACTTG),0.596
12,GGGGCAGCATGGACCGGTTTTCCCGGTAATCCGTATTTGCA (site GGGGCATCTTG),0.336
13,AGCATAGCATGGACCGGTTTTCCCGGTAATCCGTATTTGTT (site AGCTTAGCTAA),0.00966
14,CGATCACCATGGACCGGTTTTCCCGGTAATCCGTATTTGCC (site CGATCATCTAG),0
15,CAATCCTCATGGACCGGTTTTCCCGGTAATCCGTATTTGAA (site CAATGCTCTTT),0.00935
16,GCTACGTCATGGACCGGTTTTCCCGGTAATCCGTATTTGTT (site GATACGTCTAA),0.00849
17,AACGTAACATGGACCGGTTTTCCCGGTAATCCGTATTTGCT (site AATGTAACTAG),1.49
18,CGCCGTCCATGGACCGGTTTTCCCGGTAATCCGTATTTGCT (site CGCCGTTCTAG),0.012
19,AGGATGACATGGACCGGTTTTCCCGGTAATCCGTATTTGCG (site AGGAAGACTTG),0
